Each structure is given as a SMILES string. ≈ marks a conversion by molar mass, not a printed value.

Format in all cases: physicochemical
A short description of data set [1]: Solubility in toluene (Compound Properties, Table 1). As to conditions: organic solvent or mixture.
Data set [2] in a line: Solubility as observed during work-up of the synthesis. As to conditions: for solubility of the isolated solid (in words): in toluene and dichloromethane (DCM). As to the method: To 2.0 g of dichlorobathophenanthroline (5 mM) from Example 1 was added 3.0 g (11 mM) boronic acid. To this was added 0.15 g Pd2 DBA3 (0.15 mM), 0.1 g tricyclohexylphosphine (0.35 mM) and 3.75 g potassium phosphate (17 mM), and all were dissolved into 30 mL dioxane and 15 mL water. This was mixed and heated in a glove box at 100° C. for 1 hr, then warmed gently (minimum rheostat setting) under nitrogen overnight. On reaching about 80° C. the mixture was a tan brown slurry which slowly became clear brown with a dense precipitate. As the solution refluxed (air condensor) a white powdery precipitate formed. The mixture was cooled and removed from the glove box. The dioxane was removed by evaporation and additional water added. A light brown gummy solid was isolated by filtration and washed with water. […] The product was Compound 4.
Take 2.0 g of dichloro-phen (8 mM) in glove box and add 4.7 g (17 mM) boronic acid. Add 0.15 g Pd2 DBA3 (0.15 mM), 0.1 g tricyclohexylphosphine (0.35 mM) and 3.75 g potassium phosphate (17 mM) and dissolve all into 30 mL dioxane and 15 mL water. Mix and heat in glove box in mantle at 100 C for 1 hr then warm gently (minimum rheostat setting) under nitrogen overnight. Solution immediately is dark purple but on reaching ˜80 C it is a tan brown slurry which slowly becomes clear brown. As the solution refluxes (air condensor) it remains clear brown. Cool and work up by removing from glove box and evaporate out the dioxane then add more water. Filter off light brown gummy solid and wash with water. […] The structure was confirmed by NMR analysis to be Compound 14:
Take 2.5 g of dichloro-phen (10 mM) in glove box and add 8.0 g (22 mM) boronic ester. Add 0.30 g Pd2 DBA3 (0.30 mM), 0.2 g tricylcohexylphosphine (0.70 mM) and 7.5 g potassium phosphate (34 mM) and dissolve all into 60 mL dioxane and 30 mL water. Mix and heat in glove box in mantle at 100 C for 1 hr then warm gently (minimum rheostat setting) under nitrogen overnight. Solution immediately is dark purple but on reaching ˜80 C it is a tan brown slurry which slowly becomes clear brown. […]

A short description of data set [3]: Solubility in anisole (footnotes of Table 1). The following applies: organic solvent or mixture.

In the case of `c1ccc(-c2cc(-c3cccc(-n4c5ccccc5c5ccccc54)c3)nc3c2ccc2c(-c4ccccc4)cc(-c4cccc(-n5c6ccccc6c6ccccc65)c4)nc23)cc1` [Compound 1], in data set [1], the solubility – broadly, how much of the substance goes into solution per volume – came out at 4800 µg/mL (≈ 5.89 mM).

As for `c1ccc(-c2cc(-c3ccc(N(c4ccccc4)c4ccccc4)cc3)c3ccc4c(-c5ccc(N(c6ccccc6)c6ccccc6)cc5)cc(-c5ccccc5)nc4c3n2)cc1` [Compound 2], the solubility in data set [1] came out at 7600 µg/mL (≈ 9.28 mM). Same read-out and setting: the result for `c1ccc(-c2cc(-c3ccc(-c4cccc5ccccc45)cc3)nc3c2ccc2c(-c4ccccc4)cc(-c4ccc(-c5cccc6ccccc56)cc4)nc23)cc1` [Compound 3] reads 4500 µg/mL (≈ 6.11 mM). As for `c1ccc(-c2cc(-c3ccc(N(c4ccccc4)c4ccccc4)cc3)nc3c2ccc2c(-c4ccccc4)cc(-c4ccc(N(c5ccccc5)c5ccccc5)cc4)nc23)cc1` [Compound 4], in data set [1], the solubility was 31300 µg/mL (≈ 38.2 mM). For the same compound, the “solubility of the isolated solid (in words)” value in data set [2] is listed as “dissolved well”. Regarding `c1ccc(-c2ccccc2-c2cc(-c3ccccc3)c3ccc4c(-c5ccccc5)cc(-c5ccccc5-c5ccccc5)nc4c3n2)cc1` [Compound 9], the solubility in data set [1] was 25600 µg/mL (≈ 40.2 mM).

In the case of `Fc1ccccc1-c1cc(-c2ccccc2)c2ccc3c(-c4ccccc4)cc(-c4ccccc4F)nc3c2n1` [Compound 10], the solubility in data set [1] was determined as 22200 µg/mL (≈ 42.6 mM).

For the compound `c1ccc(-c2cc(-c3c4ccccc4c(-c4ccc(-c5cccc6ccccc56)cc4)c4ccccc34)nc3c2ccc2c(-c4ccccc4)cc(-c4c5ccccc5c(-c5ccc(-c6cccc7ccccc67)cc5)c5ccccc45)nc23)cc1` [Compound 11], in data set [1], the solubility was determined as 10100 µg/mL (≈ 9.27 mM). Same read-out and setting: as for `c1ccc(-c2ccc3c(c2)c2cc(-c4ccccc4)ccc2n3-c2cccc(-c3cc(-c4ccccc4)c4ccc5c(-c6ccccc6)cc(-c6cccc(-n7c8ccc(-c9ccccc9)cc8c8cc(-c9ccccc9)ccc87)c6)nc5c4n3)c2)cc1` [Compound 12], the figure is 22800 µg/mL (≈ 20.4 mM). `c1ccc(-c2cc(-c3ccc(-c4ccc5ccccc5c4)cc3)nc3c2ccc2c(-c4ccccc4)cc(-c4ccc(-c5ccc6ccccc6c5)cc4)nc23)cc1` [Compound 13]: the solubility in data set [1] came to 2000 µg/mL (≈ 2.71 mM). As to `c1ccc(N(c2ccccc2)c2ccc(-c3ccnc4c3ccc3c(-c5ccc(N(c6ccccc6)c6ccccc6)cc5)ccnc34)cc2)cc1` [Compound 14, 4,7-bis(4-diphenylaminophenyl)-1,10-phenanthroline], the “solubility of the isolated solid (in words)” value in data set [2] is listed as “dissolves well”.

In the case of `c1cc(-c2ccnc3c2ccc2c(-c4cccc(-n5c6ccccc6c6ccccc65)c4)ccnc23)cc(-n2c3ccccc3c3ccccc32)c1` [Compound 15], in data set [1], the solubility came to 20000 µg/mL (≈ 30.2 mM). Further, the “solubility of the product (in words)” value in data set [2] (solvent not stated, observed at chromatography/crystallisation) is “extremely soluble”. Regarding `c1ccc(-c2cccc(-c3cc(-c4ccccc4)c4ccc5c(-c6ccccc6)cc(-c6cccc(-c7ccccc7)c6)nc5c4n3)c2)cc1` [Compound 16], the solubility in data set [1] was 800 µg/mL (≈ 1.26 mM); in data set [3] it was 5000 µg/mL (≈ 7.85 mM). Turning to `c1ccc(-c2cc(-c3ccccc3)c3ccc4c(-c5ccccc5)cc(-c5cccc6ccccc56)nc4c3n2)cc1` [Compound 17], the solubility in data set [1] stood at 4200 µg/mL (≈ 7.86 mM). `c1ccc(-c2cc(-c3ccccc3)c3ccc4c(-c5ccccc5)cc(-c5ccc6ccccc6c5)nc4c3n2)cc1` [Compound 18]: in data set [1], the solubility was 2300 µg/mL (≈ 4.3 mM). Still for that read-out and setting: as for `c1ccc(N(c2ccccc2)c2cccc(-c3ccnc4c3ccc3c(-c5cccc(N(c6ccccc6)c6ccccc6)c5)ccnc34)c2)cc1` [Compound 20], the figure is 32200 µg/mL (≈ 48.3 mM). For the compound `c1ccc(-c2cc(-c3ccc4ccccc4c3)nc3c2ccc2c(-c4ccccc4)cc(-c4ccc5ccccc5c4)nc23)cc1` [Compound 21], the solubility in data set [1] turned out to be 1000 µg/mL (≈ 1.71 mM); in data set [3], 3000 µg/mL (≈ 5.13 mM).

The values above are taken from patent US8309731B2, “Electronic device including phenanthroline derivative” (E I du Pont de Nemours and Company, priority 2011, dated 2012).
